Reference: patent US10052311B2, “PPAR compounds for use in the treatment of fibrotic diseases” (INVENTIVA, priority 2014, dated 2018)

Test system: anti-GBM exposed mice
Test: Anti-GBM induced glomerulonephritis in mice
Type: in vivo, mouse
Settings: 10 mg/kg/day po 7 days, vs vehicle

With `C[C@H](CS)C(=O)N1CCC[C@H]1C(=O)O` [captopril, reference compound] the “Col1a expression (kidney)” value was “had no effect on Col1a expression”, the “Col3a expression (kidney)” value was “had no effect on Col3a expression” and the “TGFβR-1 expression (kidney)” value was “had no effect on TGFβ-R1 expression”. For the same compound, the “kidney MCP-1 levels” value was “significantly reduced MCP-1 levels”, the kidney osteopontin levels was “significantly reduced osteopontin levels” and the serum urea levels was “reduced urea level without reaching significance”. The urinary albumin levels was “reduced albumin levels without reaching significance”.
